Data from US20250304587A1, “WEE1 INHIBITOR, PREPARATION THEREFOR AND USE THEREOF” (JIANGSU TASLY DIYI PHARMACEUTICAL CO., LTD., priority 2022, published 2025).
Read-outs that look alike come from different tables or passages of the source.

How the values were obtained:
[1] = rat, in vivo; for Death Numbers / Death Rate: SD, 14 days
[2] = Pharmacokinetics on single dose in mice (iv and po); type: in vivo, male ICR mice
Source text: The present experiment aimed to study the pharmacokinetics in the plasma of male ICR mice after the administration. The present experiment aimed to obtain the pharmacokinetic profile of the subject compounds in ICR mice (both intravenous and oral) [table] • Species: SPF grade male ICR mice • Body weight/weekly age: about 30 g • Amount: 6 • Experimental animal source: Charles River • Intravenous solvents: 5% DMSO—10% Solutol-85% HPBCD (20%, WN) • “Gavage solvent/dosage form: 5% DMSO—10% Solutol-85% HPBCD (20%, WN)” • Intravenous: 1 mg/kg in a volume of 5 mL/kg • Gavage: 10 mg/kg in a volume of 10 mL/kg • Ultrasound for 5 min before administration • Intravenous: 0.2 mg/mL • Gavage: 1 mg/mL • Fast overnight before administration and feed four hours after administration. […] The blood samples were stored in a refrigerator at or below −20 C for LC-MS/MS analysis. The samples were detected for drug concentration at each time point by LC-MS/MS. Pharmacokinetic parameters terminal elimination half-life (t½), area under the curve (AUC), apparent volume of distribution (Vd), clearance (CL), mean residence time (MRT), and Cmax were calculated using the non-compailinental model of Phoenix WinNonlin 5.2. Bioavailability (F %) was directly from serum concentration results. Mean standard deviation (X±SD) was used for blood concentration and pharmacokinetic parameters, etc. Specific testing and analytical methods were specified in the form of protocol revisions.

[3] = target: CYP1A2 (Homo sapiens (Human), UniProt P05177); experiment: Cytochrome P450 inhibition (fluorescence), CYP1A2; type: in vitro ADME; settings: read-out: IC50 CYP1A2
Chain of CYP1A2 (P05177 whole entry, canonical isoform): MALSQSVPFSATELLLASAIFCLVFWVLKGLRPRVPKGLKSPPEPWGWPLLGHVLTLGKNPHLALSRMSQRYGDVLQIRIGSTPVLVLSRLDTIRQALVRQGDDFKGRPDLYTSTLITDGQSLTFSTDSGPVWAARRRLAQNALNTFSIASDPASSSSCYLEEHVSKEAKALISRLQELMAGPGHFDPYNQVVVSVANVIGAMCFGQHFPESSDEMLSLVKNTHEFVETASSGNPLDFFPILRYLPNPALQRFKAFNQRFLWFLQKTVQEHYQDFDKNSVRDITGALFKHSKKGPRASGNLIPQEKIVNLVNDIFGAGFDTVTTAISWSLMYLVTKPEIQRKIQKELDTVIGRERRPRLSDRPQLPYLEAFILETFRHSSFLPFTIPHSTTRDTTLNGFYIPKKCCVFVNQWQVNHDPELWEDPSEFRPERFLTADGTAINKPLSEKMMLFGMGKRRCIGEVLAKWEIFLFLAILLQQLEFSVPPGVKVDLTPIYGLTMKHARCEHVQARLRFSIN
Experimental: Enzymatic experiments were performed to quantify the inhibition of CYP450 enzyme activity of each isoform of CYP450 by small molecule inhibitors through fluorescence generated by the oxidation of the substrate by cytochrome P450. […] The Solution B composition used for the experiment was: 40 U/mL G6PDH (Sigma-aldrich, Cat #G6378). The substrate mix was 0.05× Solution A, 0.01× Solution B, 50 mM Potassium Phosphate, 0.01 mM BOMCC/0.01 mM EOMCC/0.001 mM DBOMF. […] The data were analyzed and processed using GraphPad Prism 6 software to obtain IC50 values.

[4] = tested on: HK2 cells; experiment: Cell Titer-Glo anti-proliferation, normal cells HK2; type: cell-based; settings: Homo sapiens, HK-2
How it was run: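 Cells were exposed to serial compound concentrations (0.2% DMSO final) for 3 days at 37 °C, 5% CO2, then lysed with Cell Titer-Glo and read by luminescence. Inhibition was referenced to untreated-cell and medium-only controls, and IC50 came from a four-parameter variable-slope log(inhibitor)–response fit.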

[5] = Membrane permeability in Caco-2 model; type: in vitro ADME; settings: human, Caco-2, pH 7.4; Caco2, 10 μM, 90 min
How it was run: (§1)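 Caco-2 monolayers grown 21-28 days post-seeding, integrity checked by Lucifer Yellow Papp. Apical and basolateral compound levels measured by LC-MS/MS against a standard curve to derive apparent permeability (Papp).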

[6] = tested on: human colon cancer HT-29 cells xenograft; experiment: Anti-tumor efficacy, HT-29 xenograft (CDX model); type: in vivo, female BALB/c nude mice; settings: HT-29 model, after 24 days
Experimental: Experimental method: BALB/c nude mice (provided by Charles River) were selected, 7-8 weeks old and weighing 19-22 g.
The prepared and cultured HT-29 cells were counted, and 5×10^6 HT-29 cells were mixed in 0.1 mL PBS solution and inoculated subcutaneously on the right wing of mice. When the cells became tumors and the average tumor volume reached 120 mm^3, they began to be grouped and administered. […] The experimental indicator was to check whether the tumor growth was inhibited. The formula for calculating the tumor volume was: V=0.5a×b^2, where a and b respectively indicated the long and short diameters of the tumor.
The anti-tumor effects of the compounds were evaluated by TGI (%).

[7] = Single dose toxicity in rats, maximum tolerated dose
[8] = tested on: Caco-2 cells; experiment: Membrane permeability in Caco-2 model; type: in vitro ADME
How it was run: as §1

[9] = male, mouse, plasma, ICR mice, iv 1 mg/kg
[10] = male, mouse, plasma, ICR mice, po 10 mg/kg
[11] = female rats, 200 mg/kg by gavage
[12] = female rats, 300 mg/kg by gavage
[13] = female rats, 400 mg/kg by gavage
[14] = female rats, 500 mg/kg by gavage

C=CCn1c(=O)c2cnc(Nc3ccc(N4CCN(C)CC4)cc3)nc2n1-c1cccc(C(C)(C)O)n1 [AZD1775, reference compound]
Death Numbers ([1]; female, 100 mg/kg): 0
Death Rate ([1]; female, 100 mg/kg): 0%
Death Numbers ([1]; female, 200 mg/kg): 0
Death Rate ([1]; female, 200 mg/kg): 0%
Death Numbers ([1]; female, 300 mg/kg): 2
Death Rate ([1]; female, 300 mg/kg): 67%
Death Numbers ([1]; male, 100 mg/kg): 0
Death Rate ([1]; male, 100 mg/kg): 0%
Death Numbers ([1]; male, 200 mg/kg): 0
Death Rate ([1]; male, 200 mg/kg): 0%
Death Numbers ([1]; male, 300 mg/kg): 0
Death Rate ([1]; male, 300 mg/kg): 0%
Cl ([2]; ICR mice, po 10 mg/kg): 26.76 L/h/kg
F ([2]; ICR mice, po 10 mg/kg): 32%
AUC(0-t) [2, 9]: 116 ng·h/mL
clearance [2, 9]: 134 mL/min/kg
half-life [2, 9]: 30 min
C0 ([2]; male, mouse, plasma, ICR mice, iv 1 mg/kg, read-out: C0): 250 ng/mL
AUC(0-t) [2, 10]: 396 ng·h/mL
half-life [2, 10]: 52.2 min
Cmax ([2]; male, mouse, plasma, ICR mice, po 10 mg/kg, read-out: Cmax): 398 ng/mL
Tmax ([2]; male, mouse, plasma, ICR mice, po 10 mg/kg, read-out: Tmax): 25.2 min
IC50 [3]: > 10 µM
IC50 [4]: 260 nM
Papp A→B at 90 min, 10 µM [5]: 0.8 ×10⁻⁶ cm/s
Papp B→A at 90 min, 10 µM [5]: 15.2 ×10⁻⁶ cm/s
TGI ([6]; 60 mg/kg qd): 54.5%

[2H][C@]1(O)c2nc(-n3c4nc(Nc5ccc(N6CCC7(CCN(C)CC7)CC6)cc5)ncc4c(=O)n3CC=C)ccc2CCC12CC2 [Compound 37b]
Maximum tolerated dose (in words) [1]: higher than that of the control compound AZD1775
Death Numbers [7, 11]: 0
Death Rate [7, 11]: 0%
Death Numbers [7, 12]: 0
Death Rate [7, 12]: 0%
Death Numbers [7, 13]: 3
Death Rate [7, 13]: 60%
Death Numbers [7, 14]: 2
Death Rate [7, 14]: 67%
Death Numbers ([7]; male rats, 200 mg/kg by gavage): 0
Death Rate ([7]; male rats, 200 mg/kg by gavage): 0%
Death Numbers ([7]; male rats, 300 mg/kg by gavage): 0
Death Rate ([7]; male rats, 300 mg/kg by gavage): 0%
Death Numbers ([7]; male rats, 400 mg/kg by gavage): 2
Death Rate ([7]; male rats, 400 mg/kg by gavage): 40%
Death Numbers ([7]; male rats, 500 mg/kg by gavage): 2
Death Rate ([7]; male rats, 500 mg/kg by gavage): 40%
AUClast ([2]; ICR mice, iv 1 mg/kg): 558 ng·h/mL
C0 ([2]; ICR mice, iv 1 mg/kg): 186 ng/mL
Cl ([2]; ICR mice, iv 1 mg/kg): 1.58 L/h/kg
T1/2 ([2]; ICR mice, iv 1 mg/kg): 2.99 h
AUClast ([2]; ICR mice, po 10 mg/kg): 1607 ng·h/mL
Cl ([2]; ICR mice, po 10 mg/kg): 4.44 L/h/kg
Cmax ([2]; ICR mice, po 10 mg/kg): 307 ng/mL
F ([2]; ICR mice, po 10 mg/kg): 29%
Tmax ([2]; ICR mice, po 10 mg/kg): 160 min
Pharmacokinetic properties (in words) ([2]; mice, compared with AZD1775): better pharmacokinetic properties than the control compound AZD1775
Efflux Ration ([8]; Caco2): 21.06
Papp A to B ([8]; Caco2, 10 μM, 90 min): 0.46 10^−6 cm/s
Papp B to A ([8]; Caco2, 10 μM, 90 min): 9.69 10^−6 cm/s
TGI ([6]; 30 mg/kg qd): 34.7%
TGI ([6]; 60 mg/kg qd): 57.7%
TGI ([6]; 120 mg/kg qd): 100.0%
